Source: patent US9718785B2, “1,3-Disubstituted cyclopentane derivatives” (MERCK PATENT GMBH, priority 2013, dated 2017)

Each compound was assayed against T1, human recombinant full-length fatty acid synthase (FASN) (Homo sapiens, UniProt P49327) (assay: Biochemical activity testing of human fatty acid synthase FASN (NADPH fluorescence intensity enzyme assay)). Conditions: human recombinant FASN, enzyme assay.
T1 construct: 40 nM human recombinant full-length fatty acid synthase (produced in-house in SF9 cells); made in house; host or cells: SF9 insect cells
T1 sequence (P49327 whole entry): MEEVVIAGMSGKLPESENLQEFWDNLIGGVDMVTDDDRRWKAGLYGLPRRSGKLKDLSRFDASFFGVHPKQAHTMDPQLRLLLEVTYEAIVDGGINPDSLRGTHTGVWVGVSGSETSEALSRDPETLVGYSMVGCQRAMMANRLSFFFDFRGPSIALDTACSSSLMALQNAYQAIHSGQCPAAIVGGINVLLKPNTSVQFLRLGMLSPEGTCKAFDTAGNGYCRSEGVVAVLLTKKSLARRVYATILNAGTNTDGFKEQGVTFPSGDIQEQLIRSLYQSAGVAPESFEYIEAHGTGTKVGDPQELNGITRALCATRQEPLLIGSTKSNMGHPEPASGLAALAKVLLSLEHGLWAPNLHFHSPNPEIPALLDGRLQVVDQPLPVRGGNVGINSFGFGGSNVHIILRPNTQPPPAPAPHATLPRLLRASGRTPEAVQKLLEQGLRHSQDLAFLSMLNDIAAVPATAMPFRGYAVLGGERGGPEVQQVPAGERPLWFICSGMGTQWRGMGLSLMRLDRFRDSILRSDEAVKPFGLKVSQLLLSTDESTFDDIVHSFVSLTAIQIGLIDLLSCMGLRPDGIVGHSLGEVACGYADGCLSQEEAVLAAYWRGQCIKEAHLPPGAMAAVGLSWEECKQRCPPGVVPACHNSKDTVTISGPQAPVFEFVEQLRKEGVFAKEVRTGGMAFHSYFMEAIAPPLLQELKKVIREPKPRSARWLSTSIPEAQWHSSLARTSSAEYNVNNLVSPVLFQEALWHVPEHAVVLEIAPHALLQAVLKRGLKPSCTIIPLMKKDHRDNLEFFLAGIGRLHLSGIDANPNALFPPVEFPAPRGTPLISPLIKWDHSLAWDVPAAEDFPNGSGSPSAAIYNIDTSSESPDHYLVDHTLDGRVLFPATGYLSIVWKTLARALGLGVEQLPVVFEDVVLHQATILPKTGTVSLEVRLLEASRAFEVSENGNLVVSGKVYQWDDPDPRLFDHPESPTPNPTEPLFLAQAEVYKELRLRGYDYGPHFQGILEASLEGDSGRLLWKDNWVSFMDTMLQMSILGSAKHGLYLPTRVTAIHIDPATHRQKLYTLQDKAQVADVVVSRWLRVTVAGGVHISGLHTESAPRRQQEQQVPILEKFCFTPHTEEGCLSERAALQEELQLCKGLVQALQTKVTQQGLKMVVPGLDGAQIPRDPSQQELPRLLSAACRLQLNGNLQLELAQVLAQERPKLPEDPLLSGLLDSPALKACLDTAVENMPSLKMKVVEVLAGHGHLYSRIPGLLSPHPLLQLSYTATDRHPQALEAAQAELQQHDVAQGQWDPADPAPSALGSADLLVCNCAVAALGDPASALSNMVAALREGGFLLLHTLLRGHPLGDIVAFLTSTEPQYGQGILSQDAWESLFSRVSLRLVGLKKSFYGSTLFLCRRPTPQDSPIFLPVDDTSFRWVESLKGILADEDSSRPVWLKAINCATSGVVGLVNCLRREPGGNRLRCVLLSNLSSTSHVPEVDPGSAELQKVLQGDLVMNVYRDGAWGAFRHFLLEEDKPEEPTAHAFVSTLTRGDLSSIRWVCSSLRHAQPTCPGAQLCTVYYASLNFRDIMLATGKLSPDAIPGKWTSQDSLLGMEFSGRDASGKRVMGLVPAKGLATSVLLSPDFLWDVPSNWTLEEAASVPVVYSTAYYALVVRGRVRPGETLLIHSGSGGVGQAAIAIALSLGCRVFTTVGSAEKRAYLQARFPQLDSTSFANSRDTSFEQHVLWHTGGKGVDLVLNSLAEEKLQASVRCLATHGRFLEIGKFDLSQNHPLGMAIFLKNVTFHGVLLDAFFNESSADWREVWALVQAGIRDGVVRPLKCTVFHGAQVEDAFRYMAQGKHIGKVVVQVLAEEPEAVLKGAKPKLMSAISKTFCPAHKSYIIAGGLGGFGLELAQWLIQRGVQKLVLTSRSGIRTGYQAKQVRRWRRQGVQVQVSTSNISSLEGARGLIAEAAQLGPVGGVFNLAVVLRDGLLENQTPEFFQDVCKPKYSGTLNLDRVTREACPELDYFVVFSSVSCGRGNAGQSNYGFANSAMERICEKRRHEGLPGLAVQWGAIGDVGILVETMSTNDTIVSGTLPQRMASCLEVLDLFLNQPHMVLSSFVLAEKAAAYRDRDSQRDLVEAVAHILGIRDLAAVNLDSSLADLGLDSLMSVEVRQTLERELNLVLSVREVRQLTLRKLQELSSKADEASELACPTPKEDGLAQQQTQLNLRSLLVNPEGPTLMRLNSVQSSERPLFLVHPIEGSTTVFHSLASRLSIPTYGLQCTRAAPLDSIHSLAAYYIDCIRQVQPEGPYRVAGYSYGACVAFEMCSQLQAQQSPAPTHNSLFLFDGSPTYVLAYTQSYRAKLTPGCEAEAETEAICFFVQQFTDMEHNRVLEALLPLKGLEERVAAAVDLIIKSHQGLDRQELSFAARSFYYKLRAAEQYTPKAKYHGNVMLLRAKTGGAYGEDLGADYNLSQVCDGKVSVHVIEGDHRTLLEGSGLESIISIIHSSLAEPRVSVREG
Excerpt: Biochemical Activity Testing of Human Fatty Acid Synthase FASN
Fatty acid synthase FASN is a multifunctional enzyme with seven catalytic activities thereby synthesising long chain fatty acids especially palmitoyl-CoA in the presence of co-factor NADPH starting from the substrates acetyl-CoA and malonyl-CoA. The reductive synthesis is realized by the oxidation of NADPH to NADP. Since NADPH has a high fluorescence intensity quantum yield compared to NADP with excitation at 340 nm and emission at 460 nm, the reaction can be monitored via the decrease in fluorescence intensity. The biochemical FASN activity testing was performed as 384 well two-time-point kinetic fluorescence intensity assay format in Greiner low volume medium binding 384-well black microtiter plates in a total assay volume of 8 μl and was used for high throughput screen. In each well 3 μl 40 nM human recombinant full-length fatty acid synthase (produced in-house in SF9 cells) were dispensed in the following assay buffer: 50 mM potassium phosphate buffer pH 7.0, 0.005% (w/v) BSA, 2 mM Glutathione, 0.02% Tween-20. Then 2 μl of 200 μM NADPH in assay buffer were added, followed by the addition of the test compounds in 10 dilution concentrations starting with 30 μM (final concentration) to get a final DMSO content of 1% (v/v). The mixture was incubated for at least 15 min at room temperature. After the pre-incubation the enzymatic reaction was started by the addition of 2 μl substrate solution (80 μM acetyl-CoA, 240 μM malonyl-CoA). A first fluorescence intensity measurement (time point one) was performed with an Envision multimode reader (Perkin Elmer LAS Germany GmbH) at excitation wavelength 340 nm (lamp mode) and emission wavelength 460 nm. The reaction was incubated for 30 minutes at room temperature. After this the fluorescence intensity was measured again in the Envision using the same parameters as described above (second time point measurement). The data were analysed by subtracting the first time point measurement value from the second time point measurement value (after the enzymatic reaction). The differences of the emission signals were determined. These reflect directly the conversion rate of NADPH. The full value used was the inhibitor-free reaction. A pharmacological zero value was used like GSK837149A (Sigma-Aldrich) in a final concentration of 5-10 μM. The inhibitory values (IC50) were determined using either the program Symyx Assay Explorer® or Condosseo® from GeneData.

First: CCC(=O)N[C@H]1CC[C@@H](n2nncc2-c2ccc(-c3ccc4ccn(C)c4c3)nc2)C1 [Compound A122, N-((1S,3R)-3-{5-[6-(1-Methyl-1H-indol-6-yl)-pyridin-3-yl]-[1,2,3]triazol-1-yl}-cyclopentyl)-propionamide]
Second: CCC(=O)N[C@H]1CC[C@@H](n2nncc2-c2ccc(-c3ccc4cc[nH]c4c3)nc2)C1 [Compound A121, N-((1S,3R)-3-{5-[6-(1H-Indol-6-yl)-pyridin-3-yl]-[1,2,3]triazol-1-yl}-cyclopentyl)-propionamide]
The IC50 of the first is higher: 300 to 3000 nM for the first, under 300 nM for the second. The second is the more potent here.

CCC(=O)N[C@H]1CC[C@@H](n2nncc2-c2ccc(-c3ccc4[nH]ccc4c3)cc2)C1 [Compound A27, N-((1S,3R)-3-{5-[4-(1H-indol-5-yl)-phenyl]-[1,2,3]triazol-1-yl}-cyclopentyl)-propionamide] and CCC(=O)N[C@H]1CC[C@@H](n2nncc2-c2ccc(-c3ccc4[nH]ncc4c3)cc2)C1 [Compound A74, N-((1S,3R)-3-{5-[4-(1H-Indazol-5-yl)-phenyl]-[1,2,3]triazol-1-yl}-cyclopentyl)-propionamide] cannot be ordered by IC50: under 300 nM for the first, under 300 nM for the second.

CCC(=O)N[C@H]1CC[C@@H](n2nncc2-c2ccc(-c3nc4ccccc4s3)cc2)C1 [Compound A28, N-{(1S,3R)-3-[5-(4-benzothiazol-2-yl-phenyl)-[1,2,3]triazol-1-yl]-cyclopentyl}-propionamide] and CCC(=O)N[C@H]1CC[C@@H](n2nncc2-c2ccc(-c3ccc4ncsc4c3)cc2)C1 [Compound A60, N-{(1S,3R)-3-[5-(4-Benzothiazol-6-yl-phenyl)-[1,2,3]triazol-1-yl]-cyclopentyl}-propionamide] cannot be ordered by IC50: under 300 nM for the first, under 300 nM for the second.

CCC(=O)N[C@H]1CC[C@@H](n2nncc2-c2ccc(-c3ccc4[nH]ccc4c3)cn2)C1 [Compound A117, N-((1S,3R)-3-{5-[5-(1H-Indol-5-yl)-pyridin-2-yl]-[1,2,3]triazol-1-yl}-cyclopentyl)-propionamide] and CCC(=O)N[C@H]1CC[C@@H](n2nncc2-c2ccc(-c3ccc4[nH]ccc4c3)nc2)C1 [Compound A107, N-((1S,3R)-3-{5-[6-(1H-Indol-5-yl)-pyridin-3-yl]-[1,2,3]triazol-1-yl}-cyclopentyl)-propionamide] cannot be ordered by IC50: under 300 nM for the first, under 300 nM for the second.

CCC(=O)N[C@H]1CC[C@@H](n2nncc2-c2ccc(-c3ccc4c(c3)NC(=O)C4)cc2)C1 [Compound A91, N-((1S,3R)-3-{5-[4-(2-Oxo-2,3-dihydro-1H-indol-6-yl)-phenyl]-[1,2,3]triazol-1-yl}-cyclopentyl)-propionamide] and CCC(=O)N[C@H]1CC[C@@H](n2nncc2-c2ccc(-c3ccc4[nH]cnc4c3)cc2)C1 [Compound A73, N-((1S,3R)-3-{5-[4-(1H-Benzimidazol-5-yl)-phenyl]-[1,2,3]triazol-1-yl}-cyclopentyl)-propionamide] cannot be ordered by IC50: under 300 nM for the first, under 300 nM for the second.

CCC(=O)N[C@H]1CC[C@@H](n2nncc2-c2ccc(-c3ccc(OCC4CC4)cc3)cc2)C1 [Compound A92, N-{(1S,3R)-3-[5-(4′-Cyclopropylmethoxy-biphenyl-4-yl)-[1,2,3]triazol-1-yl]-cyclopentyl}-propionamide] and CCC(=O)N[C@H]1CC[C@@H](n2nncc2-c2ccc(-c3ccc(-c4cnn(C)c4)cc3)cc2)C1 [Compound A64, N-((1S,3R)-3-{5-[4′-(1-Methyl-1H-pyrazol-4-yl)-biphenyl-4-yl]-[1,2,3]triazol-1-yl}-cyclopentyl)-propionamide] cannot be ordered by IC50: under 300 nM for the first, under 300 nM for the second.

CCC(=O)N[C@H]1CC[C@@H](n2nncc2-c2ccc(-c3ccc(-n4cccn4)cc3)cc2)C1 [Compound A76, N-{(1S,3R)-3-[5-(4′-Pyrazol-1-yl-biphenyl-4-yl)-[1,2,3]triazol-1-yl]-cyclopentyl}-propionamide] and CCC(=O)N[C@H]1CC[C@@H](n2cnnc2-c2ccc(-c3ccc(-n4cccn4)cc3)cc2)C1 [Compound A96, N-{(1S,3R)-3-[3-(4′-Pyrazol-1-yl-biphenyl-4-yl)[1,2,4]triazol-4-yl]-cyclopentyl}-propionamide] cannot be ordered by IC50: under 300 nM for the first, under 300 nM for the second.

First: CC1(NC(=O)[C@H]2CC[C@@H](n3cncc3-c3ccc(-c4cc5cc(F)ccc5[nH]4)cc3)C2)CC1 [Compound A8, (1S,3R)-3-{5-[4-(5-fluoro-1H-indol-2-yl)-phenyl]-imidazol-1-yl}-cyclopentanecarboxylic acid (1-methyl-cyclopropyl)-amide]
Second: CCNC(=O)[C@H]1CC[C@@H](n2cnnc2-c2ccc(-c3ccc4cc[nH]c4c3)cc2)C1 [Compound A30, (1S,3R)-3-{3-[4-(1H-indol-6-yl)-phenyl]-[1,2,4]triazol-4-yl}-cyclopentanecarboxylic acid ethylamide]
The IC50 of the first is higher: 300 to 3000 nM for the first, under 300 nM for the second. The second is the more potent here.

CC1(C)OC[C@@H](C(=O)N[C@H]2CC[C@@H](n3nncc3-c3ccc(-c4nc5ccccc5o4)cc3)C2)O1 [Compound A90, (S)-2,2-Dimethyl-[1,3]dioxolane-4-carboxylic acid {(1S,3R)-3-[5-(4-benzoxazol-2-yl-phenyl)-[1,2,3]triazol-1-yl]-cyclopentyl}-amide] and CC(=O)N[C@H]1CC[C@@H](n2nncc2-c2ccc(-c3nc4ccccc4o3)cc2)C1 [Compound A24, N-{(1S,3R)-3-[5-(4-benzoxazol-2-yl-phenyl)-[1,2,3]triazol-1-yl]-cyclopentyl}-acetamide] cannot be ordered by IC50: under 300 nM for the first, under 300 nM for the second.

CCC(=O)N[C@H]1CC[C@@H](n2nncc2-c2ccc(-c3cc4cc[nH]c4cc3F)cc2)C1 [Compound A112, N-((1S,3R)-3-{5-[4-(6-Fluoro-1H-indol-5-yl)-phenyl]-[1,2,3]triazol-1-yl}-cyclopentyl)-propionamide] and CCC(=O)N[C@H]1CC[C@@H](n2nncc2-c2ccc(-c3ccc(Cl)cc3F)cc2)C1 [Compound A81, N-{(1S,3R)-3-[5-(4′-Chloro-2′-fluoro-biphenyl-4-yl)-[1,2,3]triazol-1-yl]-cyclopentyl}-propionamide] cannot be ordered by IC50: under 300 nM for the first, under 300 nM for the second.

CCC(=O)N[C@H]1CC[C@@H](n2cnnc2-c2ccc(-c3ccc(Cl)cc3)cc2)C1 [Compound A39, N-{(1S,3R)-3-[3-(4′-chloro-biphenyl-4-yl)-[1,2,4]triazol-4-yl]-cyclopentyl}-propionamide] and CCC(=O)N[C@H]1CC[C@@H](n2cnnc2-c2ccc(-c3ccc4c(ccn4C)c3)cc2)C1 [Compound A97, N-((1S,3R)-3-{3-[4-(1-Methyl-1H-indol-5-yl)-phenyl]-[1,2,4]triazol-4-yl}-cyclopentyl)-propionamide] cannot be ordered by IC50: under 300 nM for the first, under 300 nM for the second.

CCNC(=O)[C@H]1CC[C@@H](n2cnnc2-c2ccc(-c3nc4ccccc4s3)cc2)C1 [Compound A33, (1S,3R)-3-[3-(4-benzothiazol-2-yl-phenyl)-[1,2,4]triazol-4-yl]-cyclopentanecarboxylic acid ethylamide] and CCNC(=O)[C@H]1CC[C@@H](n2cnnc2-c2ccc(-c3nc4ccccc4o3)cc2)C1 [Compound A29, (1S,3R)-3-[3-(4-benzoxazol-2-yl-phenyl)-[1,2,4]triazol-4-yl]-cyclopentanecarboxylic acid ethylamide] cannot be ordered by IC50: under 300 nM for the first, under 300 nM for the second.

CCC(=O)N[C@H]1CC[C@@H](n2nncc2-c2ccc(-c3ccc(OC)c(OC)c3)cc2)C1 [Compound A88, N-{(1S,3R)-3-[5-(3′,4′-Dimethoxy-biphenyl-4-yl)-[1,2,3]triazol-1-yl]-cyclopentyl}-propionamide] and CCNC(=O)[C@H]1CC[C@@H](n2nncc2-c2ccc(-c3ccc(Cl)cc3)cc2)C1 [Compound A14, (1S,3R)-3-[5-(4′-chloro-biphenyl-4-yl)-[1,2,3]triazol-1-yl]-cyclopentanecarboxylic acid ethylamide] cannot be ordered by IC50: under 300 nM for the first, under 300 nM for the second.

First: CCNC(=O)[C@H]1CC[C@@H](n2nncc2-c2ccc(-c3nc4ccccc4o3)cc2)C1 [Compound A13, (1S,3R)-3-[5-(4-benzoxazol-2-yl-phenyl)-[1,2,3]triazol-1-yl]-cyclopentanecarboxylic acid ethylamide]
Second: O=C(N[C@H]1CC[C@@H](n2nncc2-c2ccc(-c3nc4ccccc4o3)cc2)C1)[C@@H](O)CO [Compound A93, (S)—N-{(1S,3R)-3-[5-(4-Benzoxazol-2-yl-phenyl)-[1,2,3]triazol-1-yl]-cyclopentyl}-2,3-dihydroxy-propionamide]
The IC50 of the first is lower: under 300 nM for the first, 300 to 3000 nM for the second.

With CCC(=O)N[C@H]1CC[C@@H](n2nncc2-c2ccc(-c3cccc4[nH]ncc34)nc2)C1 [Compound A123, N-((1S,3R)-3-{5-[6-(1H-Indazol-4-yl)-pyridin-3-yl]-[1,2,3]triazol-1-yl}-cyclopentyl)-propionamide] the IC50 was 300 to 3000 nM.
